Reference: publication PMC10495264 (Nature Cell Biology, 2023)
Like-named read-outs stand apart in the source and are kept apart here.

What was measured:
TORC1 [1] = biological target: T1, TORC1 (Saccharomyces cerevisiae, UniProt P35169); assay: Yeast TORC1 kinase activity assays (radioactive IVK, Lst4^Loop substrate); format: biochemical; settings: for In vitro TORC1 kinase assay - CoA compounds, relative activity, Mean: Fig. 8b; for IC50: Lst4^Loop phosphorylation, detection limit 6 mM, n = 3, read-out: IC50 (yeast TORC1 IVK)
T1 construct: made in house; host or cells: S. cerevisiae strain NIC005 ([RL170-2c] LEU2:GFP-TOR1)
T1 sequence (P35169 whole entry): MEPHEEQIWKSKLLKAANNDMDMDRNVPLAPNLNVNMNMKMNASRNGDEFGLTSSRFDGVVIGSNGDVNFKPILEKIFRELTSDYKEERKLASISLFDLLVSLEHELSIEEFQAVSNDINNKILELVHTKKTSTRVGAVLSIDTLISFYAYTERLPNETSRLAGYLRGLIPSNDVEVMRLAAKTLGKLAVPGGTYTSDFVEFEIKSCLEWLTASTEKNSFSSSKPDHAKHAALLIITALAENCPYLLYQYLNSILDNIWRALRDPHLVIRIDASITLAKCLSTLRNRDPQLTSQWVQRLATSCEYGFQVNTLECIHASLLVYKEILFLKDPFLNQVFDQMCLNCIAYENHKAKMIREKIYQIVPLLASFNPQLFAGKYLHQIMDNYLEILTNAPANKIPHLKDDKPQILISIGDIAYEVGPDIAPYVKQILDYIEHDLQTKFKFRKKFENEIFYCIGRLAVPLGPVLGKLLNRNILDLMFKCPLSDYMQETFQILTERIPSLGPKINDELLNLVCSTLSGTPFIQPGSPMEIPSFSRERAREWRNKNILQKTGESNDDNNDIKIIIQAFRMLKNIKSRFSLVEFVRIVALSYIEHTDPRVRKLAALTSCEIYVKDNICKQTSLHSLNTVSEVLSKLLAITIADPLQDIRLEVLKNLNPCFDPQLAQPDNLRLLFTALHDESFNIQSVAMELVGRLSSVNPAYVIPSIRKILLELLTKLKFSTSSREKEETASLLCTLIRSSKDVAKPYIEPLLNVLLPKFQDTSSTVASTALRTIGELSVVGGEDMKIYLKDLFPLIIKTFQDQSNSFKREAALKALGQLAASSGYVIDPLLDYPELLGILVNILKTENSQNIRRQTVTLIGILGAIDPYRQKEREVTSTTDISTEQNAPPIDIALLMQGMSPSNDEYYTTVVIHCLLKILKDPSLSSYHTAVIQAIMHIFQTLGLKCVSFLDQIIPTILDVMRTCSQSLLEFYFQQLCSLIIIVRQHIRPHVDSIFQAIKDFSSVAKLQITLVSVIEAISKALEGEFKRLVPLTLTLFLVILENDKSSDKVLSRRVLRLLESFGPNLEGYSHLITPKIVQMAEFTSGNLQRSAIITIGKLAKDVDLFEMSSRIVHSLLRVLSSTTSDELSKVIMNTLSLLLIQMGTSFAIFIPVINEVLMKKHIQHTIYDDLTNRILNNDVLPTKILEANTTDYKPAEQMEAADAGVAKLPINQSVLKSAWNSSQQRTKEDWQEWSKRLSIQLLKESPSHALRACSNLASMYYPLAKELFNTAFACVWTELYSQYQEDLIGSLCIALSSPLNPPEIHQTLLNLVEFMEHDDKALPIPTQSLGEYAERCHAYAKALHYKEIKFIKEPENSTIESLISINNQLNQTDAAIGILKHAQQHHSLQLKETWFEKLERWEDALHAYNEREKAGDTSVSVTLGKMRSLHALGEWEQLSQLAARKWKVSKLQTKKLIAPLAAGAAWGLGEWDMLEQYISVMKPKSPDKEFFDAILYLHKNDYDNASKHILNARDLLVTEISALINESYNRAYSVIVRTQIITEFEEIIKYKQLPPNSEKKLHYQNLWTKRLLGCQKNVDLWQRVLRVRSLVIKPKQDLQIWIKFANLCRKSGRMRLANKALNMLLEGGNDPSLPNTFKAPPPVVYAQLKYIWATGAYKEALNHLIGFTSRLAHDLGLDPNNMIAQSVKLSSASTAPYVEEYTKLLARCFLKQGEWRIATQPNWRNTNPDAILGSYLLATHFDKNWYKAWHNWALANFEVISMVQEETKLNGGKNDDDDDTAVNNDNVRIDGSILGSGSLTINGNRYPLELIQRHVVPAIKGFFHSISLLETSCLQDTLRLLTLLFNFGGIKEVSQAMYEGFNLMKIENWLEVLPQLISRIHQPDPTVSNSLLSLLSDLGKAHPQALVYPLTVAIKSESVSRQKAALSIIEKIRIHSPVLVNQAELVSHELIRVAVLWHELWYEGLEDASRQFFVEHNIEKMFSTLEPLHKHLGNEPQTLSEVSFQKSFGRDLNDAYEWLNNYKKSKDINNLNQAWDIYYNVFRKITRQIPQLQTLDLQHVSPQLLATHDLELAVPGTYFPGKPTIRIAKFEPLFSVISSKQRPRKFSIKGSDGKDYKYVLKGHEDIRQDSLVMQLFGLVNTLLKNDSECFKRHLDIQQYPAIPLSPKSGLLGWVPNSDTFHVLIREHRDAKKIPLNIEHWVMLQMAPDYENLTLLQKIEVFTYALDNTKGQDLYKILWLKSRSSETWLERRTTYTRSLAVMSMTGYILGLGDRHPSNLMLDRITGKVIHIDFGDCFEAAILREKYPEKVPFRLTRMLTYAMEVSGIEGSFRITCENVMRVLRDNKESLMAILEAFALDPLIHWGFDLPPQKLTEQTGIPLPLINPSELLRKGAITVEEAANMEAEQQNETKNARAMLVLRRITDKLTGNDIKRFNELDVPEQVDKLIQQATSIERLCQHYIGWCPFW
T1 sequence (Q08921 whole entry partner): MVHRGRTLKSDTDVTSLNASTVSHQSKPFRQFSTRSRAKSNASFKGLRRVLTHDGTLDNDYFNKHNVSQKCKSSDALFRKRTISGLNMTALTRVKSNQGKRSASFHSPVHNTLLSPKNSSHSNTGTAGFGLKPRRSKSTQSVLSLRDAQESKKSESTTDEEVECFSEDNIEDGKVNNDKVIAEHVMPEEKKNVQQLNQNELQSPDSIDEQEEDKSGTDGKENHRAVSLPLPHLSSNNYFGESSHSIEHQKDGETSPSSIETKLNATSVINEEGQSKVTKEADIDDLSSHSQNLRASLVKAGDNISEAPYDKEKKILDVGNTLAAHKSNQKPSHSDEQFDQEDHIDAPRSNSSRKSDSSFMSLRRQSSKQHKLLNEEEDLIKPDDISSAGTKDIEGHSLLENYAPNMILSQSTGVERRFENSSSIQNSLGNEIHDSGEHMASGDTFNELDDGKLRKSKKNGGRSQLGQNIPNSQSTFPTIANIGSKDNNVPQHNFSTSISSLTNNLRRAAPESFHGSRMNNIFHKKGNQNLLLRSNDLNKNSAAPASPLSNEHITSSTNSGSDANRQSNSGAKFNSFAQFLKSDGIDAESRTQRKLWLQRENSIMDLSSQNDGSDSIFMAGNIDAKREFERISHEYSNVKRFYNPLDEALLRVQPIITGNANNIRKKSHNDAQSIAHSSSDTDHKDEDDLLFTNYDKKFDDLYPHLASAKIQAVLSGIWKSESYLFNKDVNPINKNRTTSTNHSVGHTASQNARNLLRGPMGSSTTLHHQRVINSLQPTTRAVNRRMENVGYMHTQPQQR
T1 sequence (P38873 whole entry partner): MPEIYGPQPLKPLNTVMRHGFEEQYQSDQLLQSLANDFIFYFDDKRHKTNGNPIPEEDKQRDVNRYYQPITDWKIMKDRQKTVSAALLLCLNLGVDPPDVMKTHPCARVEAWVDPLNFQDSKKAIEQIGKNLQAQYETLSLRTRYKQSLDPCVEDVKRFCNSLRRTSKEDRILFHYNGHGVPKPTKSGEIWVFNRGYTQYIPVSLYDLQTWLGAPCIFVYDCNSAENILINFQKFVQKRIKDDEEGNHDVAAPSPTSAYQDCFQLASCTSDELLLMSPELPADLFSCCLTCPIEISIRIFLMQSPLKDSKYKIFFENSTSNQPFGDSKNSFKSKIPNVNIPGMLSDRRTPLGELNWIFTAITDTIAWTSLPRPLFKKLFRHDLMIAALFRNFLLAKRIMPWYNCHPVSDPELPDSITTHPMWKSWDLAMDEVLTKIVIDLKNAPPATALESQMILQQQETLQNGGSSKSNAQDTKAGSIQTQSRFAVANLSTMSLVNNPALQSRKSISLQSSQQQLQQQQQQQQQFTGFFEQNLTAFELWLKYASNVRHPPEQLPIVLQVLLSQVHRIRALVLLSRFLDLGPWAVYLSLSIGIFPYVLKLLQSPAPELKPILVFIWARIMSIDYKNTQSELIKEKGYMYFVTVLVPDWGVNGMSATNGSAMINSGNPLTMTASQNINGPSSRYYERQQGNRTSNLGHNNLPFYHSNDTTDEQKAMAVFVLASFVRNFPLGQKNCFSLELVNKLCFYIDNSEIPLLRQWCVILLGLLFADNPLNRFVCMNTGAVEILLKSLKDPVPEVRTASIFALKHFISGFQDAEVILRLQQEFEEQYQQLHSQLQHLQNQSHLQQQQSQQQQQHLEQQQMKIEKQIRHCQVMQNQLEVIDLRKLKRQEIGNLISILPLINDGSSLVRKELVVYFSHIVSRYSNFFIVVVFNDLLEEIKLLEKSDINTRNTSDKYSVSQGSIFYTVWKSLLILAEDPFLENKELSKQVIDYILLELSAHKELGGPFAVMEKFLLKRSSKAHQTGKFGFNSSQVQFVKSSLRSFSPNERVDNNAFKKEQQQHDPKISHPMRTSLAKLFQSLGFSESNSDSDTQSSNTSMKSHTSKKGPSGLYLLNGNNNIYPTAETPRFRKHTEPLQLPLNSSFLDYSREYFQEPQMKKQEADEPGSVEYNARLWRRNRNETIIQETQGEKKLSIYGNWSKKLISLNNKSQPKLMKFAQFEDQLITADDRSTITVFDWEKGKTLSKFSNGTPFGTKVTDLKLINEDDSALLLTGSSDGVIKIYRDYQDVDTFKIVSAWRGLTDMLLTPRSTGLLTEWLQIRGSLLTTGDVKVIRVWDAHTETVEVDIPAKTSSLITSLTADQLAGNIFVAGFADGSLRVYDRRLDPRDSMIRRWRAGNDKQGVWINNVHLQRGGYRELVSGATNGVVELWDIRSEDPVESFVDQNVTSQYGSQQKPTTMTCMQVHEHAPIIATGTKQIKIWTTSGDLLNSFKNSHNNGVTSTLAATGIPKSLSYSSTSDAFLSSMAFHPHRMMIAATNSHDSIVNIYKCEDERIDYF
T1 sequence (P41318 whole entry partner): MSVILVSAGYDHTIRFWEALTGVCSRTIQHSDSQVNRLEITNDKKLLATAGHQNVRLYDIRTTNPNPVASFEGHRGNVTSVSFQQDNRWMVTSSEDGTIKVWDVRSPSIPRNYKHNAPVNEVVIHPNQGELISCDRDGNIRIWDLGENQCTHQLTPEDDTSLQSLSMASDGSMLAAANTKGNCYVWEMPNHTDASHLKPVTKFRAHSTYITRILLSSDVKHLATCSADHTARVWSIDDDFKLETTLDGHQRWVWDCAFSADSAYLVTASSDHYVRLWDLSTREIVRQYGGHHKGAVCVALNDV
Method: TORC1 was purified from yeast cells and radioactive IVK assays were performed essentially as previously described. Briefly, kinase reactions (total volume, 30 μl) were performed with 400 ng of purified His6–Lst4^Loop protein and 60 ng TORC1 in kinase buffer (50 mM HEPES NaOH pH 7.5 and 150 mM NaCl). […] All reactions were carried out at 30 °C for 10 min and stopped with the addition of 3×sample buffer (50 mM Tris–HCl pH 6.8, 5% SDS, 0.05% bromophenol blue, 630 mM DTT and 30% glycerol) and heating at 65 °C for 10 min. Proteins were separated by SDS–PAGE and stained in-gel with SYPRO Ruby (S4942, Sigma-Aldrich) as the loading control. Substrate phosphorylation was analysed by autoradiography using a Typhoon FLA 9500 phosphorimager (GE Healthcare) and the raw density of the signals was quantified using the gel analysis tool of ImageJ.

mTORC1 = biological target: T2, mTORC1 (Homo sapiens, UniProt P42345); assay: Mammalian mTORC1 kinase activity assays (IVK, 4E-BP1 substrate); format: biochemical; settings: for In vitro mTORC1 assay, p-4E-BP1(T37/46)/4E-BP1, Mean: Fig. 8f, relative to 0 mM
T2 construct: endogenous mTORC1 complexes were purified from HEK293FT cells; endogenous in cells; host or cells: HEK293FT (immunoprecipitation of endogenous mTOR); the 4E-BP1 substrate was made in E. coli BL21 RP
Method: Following the last wash step with CHAPS IP wash buffer, the beads were washed once with kinase wash buffer (25 mM HEPES pH 7.4 and 20 mM KCl) and excess liquid was removed using a Hamilton syringe—the final bead volume was approximately 10 μl. Kinase reactions were prepared by adding 10 μl of 3×kinase assay buffer (75 mM HEPES KOH pH 7.4, 60 mM KCl and 30 mM MgCl2) to the beads. […] The reactions were incubated at 30 °C for 30 min, and stopped by the addition of one volume of 2×SDS loading buffer and boiling (5 min, 95 °C). […] Signals were quantified using the gel analysis tool of ImageJ and are shown as the phospho-4E-BP1^T37/46/4E-BP1 ratio.

TORC1 [2] = assay: TORC1 activity in yeast cells, p-Sch9^T737/Sch9 immunoblot; format: cell-based, Saccharomyces cerevisiae; settings: wt Ctrl = 1
[3] = compound 0.073 mM, normalised to this concentration

## CC(C)(COP(=O)(O)OP(=O)(O)OC[C@H]1O[C@@H](n2cnc3c(N)ncnc32)[C@H](O)[C@@H]1OP(=O)(O)O)[C@@H](O)C(=O)NCCC(=O)NCCS [CoA, coenzyme A]
TORC1 [1]; [3]
  In vitro TORC1 kinase assay - CoA compounds, relative activity, Mean: 1
TORC1 [1]; compound 0.22 mM
  In vitro TORC1 kinase assay - CoA compounds, relative activity, Mean: 1.005
TORC1 [1]; compound 2 mM
  In vitro TORC1 kinase assay - CoA compounds, relative activity, Mean: 0.9479
TORC1 [1]; compound 6 mM
  In vitro TORC1 kinase assay - CoA compounds, relative activity, Mean: 0.6805
TORC1 [1]
  IC50: > 6000 µM
mTORC1
  IC50: > 5000 µM
mTORC1; compound 0.01 mM
  In vitro mTORC1 assay, p-4E-BP1(T37/46)/4E-BP1, Mean: 0.8503
mTORC1; compound 0.05 mM
  In vitro mTORC1 assay, p-4E-BP1(T37/46)/4E-BP1, Mean: 0.8507
mTORC1; compound 0.1 mM
  In vitro mTORC1 assay, p-4E-BP1(T37/46)/4E-BP1, Mean: 1.093
mTORC1; compound 0.5 mM
  In vitro mTORC1 assay, p-4E-BP1(T37/46)/4E-BP1, Mean: 0.8643
mTORC1; compound 1 mM
  In vitro mTORC1 assay, p-4E-BP1(T37/46)/4E-BP1, Mean: 1.061
mTORC1; compound 2.5 mM
  In vitro mTORC1 assay, p-4E-BP1(T37/46)/4E-BP1, Mean: 0.926
mTORC1; compound 5 mM
  In vitro mTORC1 assay, p-4E-BP1(T37/46)/4E-BP1, Mean: 0.889

## NC(=O)CC[C@H](N)C(=O)O [Gln, glutamine]
TORC1 [2]; Acc1-GFP yeast, nitrogen-starved then +Gln 1 min, ED Fig. 2e
  p-Sch9(T737)/Sch9, Mean: 0.2777
TORC1 [2]; Acc1-GFP yeast, nitrogen-starved then +Gln 2 min, ED Fig. 2e
  p-Sch9(T737)/Sch9, Mean: 0.2567
TORC1 [2]; Acc1-GFP yeast, nitrogen-starved then +Gln 5 min, ED Fig. 2e
  p-Sch9(T737)/Sch9, Mean: 0.172
TORC1 [2]; acc1E392K yeast, nitrogen-starved then +Gln 1 min, ED Fig. 1g
  p-Sch9(T737)/Sch9, Mean: 0.2184
TORC1 [2]; acc1E392K yeast, nitrogen-starved then +Gln 2 min, ED Fig. 1g
  p-Sch9(T737)/Sch9, Mean: 0.4052
TORC1 [2]; acc1E392K yeast, nitrogen-starved then +Gln 5 min, ED Fig. 1g
  p-Sch9(T737)/Sch9, Mean: 0.172
TORC1 [2]; acc1E392K yeast, nitrogen-starved then +Gln 15 min, ED Fig. 1g
  p-Sch9(T737)/Sch9, Mean: 0.07897
TORC1 [2]; acc1E392K,S1157A yeast, nitrogen-starved then +Gln 1 min, ED Fig. 1g
  p-Sch9(T737)/Sch9, Mean: 0.2597
TORC1 [2]; acc1E392K,S1157A yeast, nitrogen-starved then +Gln 2 min, ED Fig. 1g
  p-Sch9(T737)/Sch9, Mean: 0.4125
TORC1 [2]; acc1E392K,S1157A yeast, nitrogen-starved then +Gln 5 min, ED Fig. 1g
  p-Sch9(T737)/Sch9, Mean: 0.1831
TORC1 [2]; acc1E392K,S1157A yeast, nitrogen-starved then +Gln 15 min, ED Fig. 1g
  p-Sch9(T737)/Sch9, Mean: 0.0777
TORC1 [2]; acc1S1157A yeast, nitrogen-starved then +Gln 1 min, ED Fig. 1g
  p-Sch9(T737)/Sch9, Mean: 0.08981
TORC1 [2]; acc1S1157A yeast, nitrogen-starved then +Gln 1 min, ED Fig. 2e
  p-Sch9(T737)/Sch9, Mean: 0.1842
TORC1 [2]; acc1S1157A yeast, nitrogen-starved then +Gln 1 min, Fig. 2e
  p-Sch9(T737)/Sch9, Mean: 0.5322
TORC1 [2]; acc1S1157A yeast, nitrogen-starved then +Gln 2 min, ED Fig. 1g
  p-Sch9(T737)/Sch9, Mean: 0.2298
TORC1 [2]; acc1S1157A yeast, nitrogen-starved then +Gln 2 min, ED Fig. 2e
  p-Sch9(T737)/Sch9, Mean: 0.2323
TORC1 [2]; acc1S1157A yeast, nitrogen-starved then +Gln 2 min, Fig. 2e
  p-Sch9(T737)/Sch9, Mean: 0.5731
TORC1 [2]; acc1S1157A yeast, nitrogen-starved then +Gln 5 min, ED Fig. 1g
  p-Sch9(T737)/Sch9, Mean: 0.1433
TORC1 [2]; acc1S1157A yeast, nitrogen-starved then +Gln 5 min, ED Fig. 2e
  p-Sch9(T737)/Sch9, Mean: 0.1614
TORC1 [2]; acc1S1157A yeast, nitrogen-starved then +Gln 5 min, Fig. 2e
  p-Sch9(T737)/Sch9, Mean: 0.2159
TORC1 [2]; acc1S1157A yeast, nitrogen-starved then +Gln 15 min, ED Fig. 1g
  p-Sch9(T737)/Sch9, Mean: 0.0801
TORC1 [2]; acc1S1157A yeast, nitrogen-starved then +Gln 15 min, Fig. 2e
  p-Sch9(T737)/Sch9, Mean: 0.1147
TORC1 [2]; acc1S1157A-GFP yeast, nitrogen-starved then +Gln 1 min, ED Fig. 2e
  p-Sch9(T737)/Sch9, Mean: 0.2949
TORC1 [2]; acc1S1157A-GFP yeast, nitrogen-starved then +Gln 2 min, ED Fig. 2e
  p-Sch9(T737)/Sch9, Mean: 0.2508
TORC1 [2]; acc1S1157A-GFP yeast, nitrogen-starved then +Gln 5 min, ED Fig. 2e
  p-Sch9(T737)/Sch9, Mean: 0.1919
TORC1 [2]; wt yeast, nitrogen-starved then +Gln 1 min, n = 3, ED Fig. 2e
  p-Sch9(T737)/Sch9, Mean: 0.3518
TORC1 [2]; wt yeast, nitrogen-starved then +Gln 1 min, n = 4, ED Fig. 1g
  p-Sch9(T737)/Sch9, Mean: 0.1938
TORC1 [2]; wt yeast, nitrogen-starved then +Gln 2 min, Fig. 2e
  p-Sch9(T737)/Sch9, Mean: 0.8468
TORC1 [2]; wt yeast, nitrogen-starved then +Gln 2 min, n = 3, ED Fig. 2e
  p-Sch9(T737)/Sch9, Mean: 0.2928
TORC1 [2]; wt yeast, nitrogen-starved then +Gln 2 min, n = 4, ED Fig. 1g
  p-Sch9(T737)/Sch9, Mean: 0.4107
TORC1 [2]; wt yeast, nitrogen-starved then +Gln 5 min, Fig. 2e
  p-Sch9(T737)/Sch9, Mean: 0.2605
TORC1 [2]; wt yeast, nitrogen-starved then +Gln 5 min, n = 3, ED Fig. 2e
  p-Sch9(T737)/Sch9, Mean: 0.215
TORC1 [2]; wt yeast, nitrogen-starved then +Gln 5 min, n = 4, ED Fig. 1g
  p-Sch9(T737)/Sch9, Mean: 0.1743
TORC1 [2]; wt yeast, nitrogen-starved then +Gln 15 min, Fig. 2e
  p-Sch9(T737)/Sch9, Mean: 0.1412
TORC1 [2]; wt yeast, nitrogen-starved then +Gln 15 min, n = 4, ED Fig. 1g
  p-Sch9(T737)/Sch9, Mean: 0.07833

## CC(=O)SCCNC(=O)CCNC(=O)[C@H](O)C(C)(C)COP(=O)(O)OP(=O)(O)OC[C@H]1O[C@@H](n2cnc3c(N)ncnc32)[C@H](O)[C@@H]1OP(=O)(O)O [acetyl-CoA]
TORC1 [1]; [3]
  In vitro TORC1 kinase assay - CoA compounds, relative activity, Mean: 1
TORC1 [1]; compound 0.22 mM
  In vitro TORC1 kinase assay - CoA compounds, relative activity, Mean: 0.9698
TORC1 [1]; compound 2 mM
  In vitro TORC1 kinase assay - CoA compounds, relative activity, Mean: 0.7319
TORC1 [1]; compound 6 mM
  In vitro TORC1 kinase assay - CoA compounds, relative activity, Mean: 0.5296
TORC1 [1]
  IC50: 2880 µM
mTORC1; compound 0.01 mM
  In vitro mTORC1 assay, p-4E-BP1(T37/46)/4E-BP1, Mean: 0.9483
mTORC1; compound 0.05 mM
  In vitro mTORC1 assay, p-4E-BP1(T37/46)/4E-BP1, Mean: 0.8033
mTORC1; compound 0.1 mM
  In vitro mTORC1 assay, p-4E-BP1(T37/46)/4E-BP1, Mean: 0.8597
mTORC1; compound 0.5 mM
  In vitro mTORC1 assay, p-4E-BP1(T37/46)/4E-BP1, Mean: 0.644
mTORC1; compound 1 mM
  In vitro mTORC1 assay, p-4E-BP1(T37/46)/4E-BP1, Mean: 0.6848
mTORC1; compound 2.5 mM
  In vitro mTORC1 assay, p-4E-BP1(T37/46)/4E-BP1, Mean: 0.4704
mTORC1; compound 5 mM
  In vitro mTORC1 assay, p-4E-BP1(T37/46)/4E-BP1, Mean: 0.3906
mTORC1; mTORC1 immunoprecipitated from HEK293FT, recombinant 4E-BP1, 500 μM ATP
  IC50: 1030 µM
